Source: ChEMBL document CHEMBL3351909, “In vitro and in vivo characterization of a benzofuran derivative, a potential anticancer agent, as a novel Aurora B kinase inhibitor” (Eur J Med Chem, 2015)
Active and inactive are the calls of the source. No cut-off for these calls is given here.

How the values were obtained:
Homo sapiens = assay: Inhibition of histone H3 phosphorylation in human QGY7401 cells xenografted in ip dosed nude mouse administered qd for 14 days by Hematoxylin and eosin staining-based microscopic analysis; format: functional, organism-based
[1] = biological target: Casein kinase I isoform alpha (Homo sapiens, UniProt P48729); assay: Inhibition of recombinant CK1 alpha1 (unknown origin) after 60 mins by z'-lyte kinase assay
[2] = Cytotoxicity against human FOCUS cells after 96 hrs by CCK-8 assay; format: functional, cell-based
[3] = biological target: AMP-activated protein kinase, AMPK; assay: Inhibition of recombinant AMPK A1/B1/G1 (unknown origin) after 60 mins by z'-lyte kinase assay; format: protein-complex assay, Homo sapiens
SW-620 [4] = assay: Inhibition of colony formation in human SW620 cells after 96 hrs by crystal violet staining-based assay; format: functional, cell-based
MCF7 = assay: Cytotoxicity against human MCF7 cells after 96 hrs by CCK-8 assay; format: functional, cell-based; conditions: MCF7, 96 h
HeLa [5] = assay: Inhibition of colony formation in human HeLa cells after 96 hrs by crystal violet staining-based assay; format: functional, cell-based
SW-620 [6] = assay: Inhibition of colony formation in human SW620 cells at 5 uM after 96 hrs by crystal violet staining-based assay; format: functional, cell-based
Aurora kinase B [7] = biological target: T1, Aurora kinase B (Homo sapiens, UniProt Q96GD4); assay: Inhibition of AURKB in human HepG2 cells assessed as reduction in Aurora B expression expression at 5 to 20 uM after 48 hrs by Western blotting analysis; format: cell-based
[8] = biological target: Glycogen synthase kinase-3 beta (Homo sapiens, UniProt P49841); assay: Inhibition of recombinant GSK-3 beta (unknown origin) after 60 mins by z'-lyte kinase assay
[9] = biological target: Protein kinase C alpha type (Homo sapiens, UniProt P17252); assay: Inhibition of recombinant PKC alpha (unknown origin) after 60 mins by z'-lyte kinase assay
HT-29 = assay: Cytotoxicity against human HT-29 cells after 96 hrs by CCK-8 assay; format: functional, cell-based; conditions: HT-29, 96 h
[10] = Antitumor activity against human QGY7401 cells xenografted in nude mouse assessed as inhibition of tumor growth at 10 mg/kg, ip qd administered for 14 days measured on day 18 relative to control; format: functional; conditions: route intraperitoneal, read-out: TGI
HepG2 [11] = assay: Inhibition of colony formation in human HepG2 cells after 96 hrs by crystal violet staining-based assay; format: functional, cell-based
Mus musculus = assay: Toxicity in nude mouse xenografted with human QGY7401 cells at 10 to 20 mg/kg, ip qd administered for 14 days measured on day 18; format: organism-based; set-up: dose 10-20 mg/kg, route intraperitoneal; conditions: in vivo, 336 h
Aurora kinase B [12] = biological target: T1, Aurora kinase B; assay: Binding affinity to AURKB (unknown origin)
[13] = Cytotoxicity against human SPC-A1 cells after 96 hrs by CCK-8 assay; format: functional, cell-based; conditions: SPCA1, 96 h
[14] = biological target: Cyclin-dependent kinase 1/cyclin B1 (Homo sapiens, UniProt P06493); assay: Inhibition of recombinant CDK1/cyclin B (unknown origin) after 60 mins by z'-lyte kinase assay; format: protein-complex assay
[15] = Cytotoxicity against human SKHEP1 cells after 96 hrs by CCK-8 assay; format: functional, cell-based; conditions: SK-HEP1, 96 h
[16] = Antitumor activity against human QGY7401 cells xenografted in nude mouse assessed as reduction in tumor weight at 20 mg/kg, ip qd administered for 14 days measured on day 18 (reference value: 2.24 +/- 0.20 g); format: functional; conditions: route intraperitoneal
Aurora kinase B [17] = biological target: T1, Aurora kinase B; assay: Inhibition of AURKB in human HepG2 cells assessed as reduction in histone H3 expression at 5 to 20 uM after 48 hrs by Western blotting analysis; format: cell-based
HeLa [18] = assay: Growth inhibition of human HeLa cells at 5 to 20 uM after 96 hrs by CCK-8 assay; format: functional, cell-based
HepG2 [19] = assay: Cell cycle arrest in human HepG2 cells assessed as accumulation at G2/M phase at 20 uM after 48 hrs by flow cytometry relative to control; format: functional
Aurora kinase B [20] = biological target: T1, Aurora kinase B; assay: Inhibition of AURKB in human HepG cells assessed as reduction in histone H3 phosphorylation at 5 to 20 uM after 48 hrs by […] analysis; format: cell-based
[21] = Cytotoxicity against human PC3 cells after 96 hrs by CCK-8 assay; format: functional, cell-based; conditions: PC-3, 96 h
SW-620 [22] = assay: Cytotoxicity against human SW620 cells after 96 hrs by CCK-8 assay; format: functional, cell-based; conditions: SW-620, 96 h
Aurora kinase A [23] = biological target: T2, Aurora kinase A (Homo sapiens, UniProt O14965); assay: Binding affinity to AURKA (unknown origin)
Aurora kinase B [24] = biological target: T1, Aurora kinase B; assay: Inhibition of AURKB in human HeLa cells assessed as reduction in histone H3 phosphorylation at 5 to 20 uM after 48 hrs by Western blotting analysis; format: cell-based
SW-620 [25] = assay: Growth inhibition of human SW620 cells at 5 to 20 uM after 96 hrs by CCK-8 assay; format: functional, cell-based
HepG2 [26] = assay: Cytotoxicity against human HepG2 cells after 96 hrs by CCK-8 assay; format: functional, cell-based; conditions: HepG2, 96 h
Aurora kinase B [27] = biological target: T1, Aurora kinase B; assay: Inhibition of AURKB in human HeLa cells assessed as reduction in Aurora B expression at 5 to 20 uM after 48 hrs by Western blotting analysis; format: cell-based
Aurora kinase A [28] = biological target: T2, Aurora kinase A; assay: Inhibition of recombinant AURKA (unknown origin) after 60 mins by z'-lyte kinase assay
[29] = biological target: Vascular endothelial growth factor receptor 2 (Homo sapiens, UniProt P35968); assay: Inhibition of recombinant KDR (unknown origin) after 60 mins by z'-lyte kinase assay
[30] = Antitumor activity against human QGY7401 cells xenografted in nude mouse assessed as reduction in body weight at 10 mg/kg, ip qd administered for 14 days measured on day 18 (reference value: 24.13 +/- 2.18 g); format: functional; conditions: route intraperitoneal
[31] = Antitumor activity against human QGY7401 cells xenografted in nude mouse assessed as reduction in body weight at 20 mg/kg, ip qd administered for 14 days measured on day 18 (reference value: 24.13 +/- 2.18 g); format: functional; conditions: route intraperitoneal

T1 sequence (Q96GD4 whole entry): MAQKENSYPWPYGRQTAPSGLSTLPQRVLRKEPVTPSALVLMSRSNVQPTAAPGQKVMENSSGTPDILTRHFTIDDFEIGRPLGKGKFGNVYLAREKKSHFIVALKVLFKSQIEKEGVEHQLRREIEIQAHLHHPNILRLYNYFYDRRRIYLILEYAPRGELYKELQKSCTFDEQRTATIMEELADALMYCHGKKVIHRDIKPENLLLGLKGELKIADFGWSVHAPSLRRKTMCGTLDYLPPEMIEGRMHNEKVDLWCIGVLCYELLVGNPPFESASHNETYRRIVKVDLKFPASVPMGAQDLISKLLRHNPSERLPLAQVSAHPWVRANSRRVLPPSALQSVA
T2 sequence (O14965 whole entry): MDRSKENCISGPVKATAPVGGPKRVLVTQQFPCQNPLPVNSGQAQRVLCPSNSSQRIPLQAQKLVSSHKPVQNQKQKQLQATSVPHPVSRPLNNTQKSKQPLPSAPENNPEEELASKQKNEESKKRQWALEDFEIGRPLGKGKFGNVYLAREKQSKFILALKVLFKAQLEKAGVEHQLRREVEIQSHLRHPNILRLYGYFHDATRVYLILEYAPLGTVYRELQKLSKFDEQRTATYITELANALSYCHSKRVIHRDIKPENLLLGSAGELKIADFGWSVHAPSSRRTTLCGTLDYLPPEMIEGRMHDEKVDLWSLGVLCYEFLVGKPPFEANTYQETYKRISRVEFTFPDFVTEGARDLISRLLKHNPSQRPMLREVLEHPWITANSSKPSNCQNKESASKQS
Vascular endothelial growth factor receptor 2, sequence (P35968 whole entry): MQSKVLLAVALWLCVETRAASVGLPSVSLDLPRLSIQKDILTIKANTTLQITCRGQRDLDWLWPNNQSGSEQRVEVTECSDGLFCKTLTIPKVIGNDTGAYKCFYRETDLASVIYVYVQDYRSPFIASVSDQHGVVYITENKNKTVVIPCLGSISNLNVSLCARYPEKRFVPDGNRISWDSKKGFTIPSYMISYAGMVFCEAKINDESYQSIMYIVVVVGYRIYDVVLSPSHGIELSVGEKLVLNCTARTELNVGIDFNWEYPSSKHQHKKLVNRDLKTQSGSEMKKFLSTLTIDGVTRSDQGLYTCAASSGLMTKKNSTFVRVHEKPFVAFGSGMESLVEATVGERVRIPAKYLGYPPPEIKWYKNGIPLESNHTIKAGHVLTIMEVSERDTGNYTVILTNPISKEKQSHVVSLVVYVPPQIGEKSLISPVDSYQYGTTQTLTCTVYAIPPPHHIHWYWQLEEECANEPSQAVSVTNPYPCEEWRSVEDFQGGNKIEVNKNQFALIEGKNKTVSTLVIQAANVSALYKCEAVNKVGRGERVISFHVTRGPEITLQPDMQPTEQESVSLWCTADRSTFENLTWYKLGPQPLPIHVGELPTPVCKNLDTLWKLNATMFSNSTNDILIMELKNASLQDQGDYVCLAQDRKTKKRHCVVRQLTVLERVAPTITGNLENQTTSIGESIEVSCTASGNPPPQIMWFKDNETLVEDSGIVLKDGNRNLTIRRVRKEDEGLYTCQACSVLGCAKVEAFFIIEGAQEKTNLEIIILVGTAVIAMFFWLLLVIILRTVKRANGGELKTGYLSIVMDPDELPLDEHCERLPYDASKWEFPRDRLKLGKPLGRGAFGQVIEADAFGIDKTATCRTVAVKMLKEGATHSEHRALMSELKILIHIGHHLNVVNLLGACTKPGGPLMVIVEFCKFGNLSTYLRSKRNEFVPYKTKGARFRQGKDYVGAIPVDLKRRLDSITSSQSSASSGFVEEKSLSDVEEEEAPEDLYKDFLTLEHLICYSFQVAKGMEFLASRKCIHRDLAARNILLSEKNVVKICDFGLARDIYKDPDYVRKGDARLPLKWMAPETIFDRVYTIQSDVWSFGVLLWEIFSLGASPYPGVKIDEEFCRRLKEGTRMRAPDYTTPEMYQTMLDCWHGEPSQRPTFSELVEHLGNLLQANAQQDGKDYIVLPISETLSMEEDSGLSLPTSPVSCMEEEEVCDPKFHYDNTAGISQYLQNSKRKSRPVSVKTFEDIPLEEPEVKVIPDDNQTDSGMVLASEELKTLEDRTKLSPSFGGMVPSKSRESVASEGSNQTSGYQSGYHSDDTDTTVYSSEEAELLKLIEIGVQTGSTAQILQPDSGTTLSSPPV
Cyclin-dependent kinase 1/cyclin B1, sequence (P06493 whole entry): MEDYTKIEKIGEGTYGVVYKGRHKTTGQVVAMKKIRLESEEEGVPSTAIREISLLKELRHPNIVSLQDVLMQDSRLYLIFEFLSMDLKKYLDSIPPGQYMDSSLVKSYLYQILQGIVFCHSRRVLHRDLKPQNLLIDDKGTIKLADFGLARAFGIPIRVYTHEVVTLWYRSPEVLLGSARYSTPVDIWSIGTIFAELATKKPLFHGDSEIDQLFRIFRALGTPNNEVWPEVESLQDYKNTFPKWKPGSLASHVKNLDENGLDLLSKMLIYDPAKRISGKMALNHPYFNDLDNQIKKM
Cyclin-dependent kinase 1/cyclin B1, sequence (P14635 whole entry, further chain): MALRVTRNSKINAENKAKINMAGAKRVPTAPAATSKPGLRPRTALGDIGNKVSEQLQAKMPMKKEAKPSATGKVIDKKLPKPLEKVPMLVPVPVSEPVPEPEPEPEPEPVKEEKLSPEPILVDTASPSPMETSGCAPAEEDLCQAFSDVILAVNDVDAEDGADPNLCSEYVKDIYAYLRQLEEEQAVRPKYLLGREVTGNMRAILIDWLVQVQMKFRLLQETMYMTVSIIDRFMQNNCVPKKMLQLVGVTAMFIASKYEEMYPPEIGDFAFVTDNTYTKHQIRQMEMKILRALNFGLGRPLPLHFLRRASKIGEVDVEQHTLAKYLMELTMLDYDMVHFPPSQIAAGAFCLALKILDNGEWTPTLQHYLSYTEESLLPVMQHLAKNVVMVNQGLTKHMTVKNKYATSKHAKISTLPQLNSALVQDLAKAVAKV
Glycogen synthase kinase-3 beta, sequence (P49841 whole entry): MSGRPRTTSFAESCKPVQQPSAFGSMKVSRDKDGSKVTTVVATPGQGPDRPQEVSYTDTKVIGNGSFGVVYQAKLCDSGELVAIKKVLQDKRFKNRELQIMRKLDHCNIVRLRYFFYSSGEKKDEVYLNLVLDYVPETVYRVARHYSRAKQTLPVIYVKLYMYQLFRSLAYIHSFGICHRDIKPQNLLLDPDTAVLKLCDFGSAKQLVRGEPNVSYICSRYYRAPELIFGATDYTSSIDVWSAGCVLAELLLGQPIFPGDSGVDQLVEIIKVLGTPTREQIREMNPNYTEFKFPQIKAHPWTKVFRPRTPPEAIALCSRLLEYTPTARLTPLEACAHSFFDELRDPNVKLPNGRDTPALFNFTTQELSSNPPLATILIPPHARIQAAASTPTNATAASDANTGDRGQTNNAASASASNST
Casein kinase I isoform alpha, sequence (P48729 whole entry, canonical isoform): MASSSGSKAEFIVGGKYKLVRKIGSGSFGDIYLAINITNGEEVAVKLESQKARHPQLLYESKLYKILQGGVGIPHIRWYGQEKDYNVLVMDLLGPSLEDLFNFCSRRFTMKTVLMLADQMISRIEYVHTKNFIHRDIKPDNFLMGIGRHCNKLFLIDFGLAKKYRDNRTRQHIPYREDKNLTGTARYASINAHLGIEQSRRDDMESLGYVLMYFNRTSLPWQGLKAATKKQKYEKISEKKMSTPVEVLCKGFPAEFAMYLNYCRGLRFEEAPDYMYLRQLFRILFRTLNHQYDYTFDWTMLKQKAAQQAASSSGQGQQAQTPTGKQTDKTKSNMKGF

O=C1/C(=C\c2ccc(O)c(O)c2)Oc2ccccc21
inhibition (Homo sapiens): Dose-dependent effect | IC50 [1]: 78.8 µM | IC50 [2]: 20.7 µM | IC50 [3]: 19.5 µM | inhibition (SW-620 [4]): Dose-dependent effect | IC50 (MCF7): 16.2 µM | inhibition (HeLa [5]): Dose-dependent effect | inhibition (SW-620 [6]): Active | inhibition (Aurora kinase B [7]): Active | IC50 [8]: 2.63 µM | IC50 [9]: 26.8 µM | IC50 (HT-29): 34.9 µM | inhibition in vivo at 10 mg/kg [10]: 39.2% | inhibition (HepG2 [11]): Dose-dependent effect | Activity (Mus musculus): Non-toxic | Kd (Aurora kinase B [12]): 3.06 µM | IC50 [13]: 20.4 µM | IC50 [14]: 37.4 µM | IC50 [15]: 41.9 µM | Activity [16]: 1.44 g | inhibition (Aurora kinase B [17]): Active | growth inhibition (GI) (HeLa [18]): Active | Ratio (HepG2 [19]): 2 | inhibition (Aurora kinase B [20]): Active | IC50 [21]: > 50 µM | IC50 (SW-620 [22]): 3.9 µM | Kd (Aurora kinase A [23]): 12.9 µM | inhibition (Aurora kinase B [24]): Active | growth inhibition (GI) (SW-620 [25]): Active | IC50 (HepG2 [26]): 8.2 µM | inhibition (Aurora kinase B [27]): Active | IC50 (Aurora kinase A [28]): 1.34 µM | IC50 [29]: 5.96 µM | Activity [30]: 21.87 g | Activity [31]: 22.14 g
